experiment: recombinant barcode read abundance after kanamycin selection (control-corrected) (log10(CPM+1)); higher = more efficient recombination; sequences stand for … in AGTGCAGAGAAAATCGGCCAGTTTTCTCTGCCTGCAGTCCGCATGCCGT…ATTTATGCAGCGGACTGCCTTTCTCCCAAAGTGATAAACCGGACAGTATCATGGACCGGTTTTCCCGGTAATCCGTATTTGCAAGGTTGGTTTCACT; site = the 11-nt target
Outline: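 Reported as log10(CPM+1), each value stands for recombination efficiency. That efficiency is the averaged, control-corrected counts per million of barcodes found at recombinant junctions. Cells from a pooled E. coli library pairing targets with IS621 bridge RNA target-binding loops were plated twice on chloramphenicol/ampicillin LB agar (control) and twice on chloramphenicol/ampicillin/kanamycin with 0.1 mM IPTG.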

Point of comparison: “CGAGCCCTGTGGGTTCTAACCTGTTGCTGAG [CGAGCCCCTCA_LTGcore_TG_RTGcore_CT] (site CGAGCCCCTCA) (LTG core: TG, RTG core: CT)”, “recombinant barcode read abundance (log10)” value 0.134. Against it:
- GAGTCCAAGTGGGTTCTAACCTGTTGCGTAG [GAGTCCACTAC_LTGcore_AG_RTGcore_CT] (site GAGTCCACTAC) (LTG core: AG, RTG core: CT) — within 0.2 log units, 0.075
- CGAGCCCCGTGGGTTCTAACCTGTTGCTGCG [CGAGCCCCTCA_LTGcore_CG_RTGcore_CG] (site CGAGCCCCTCA) (LTG core: CG, RTG core: CG) — higher, 0.493
- TGTATTCCTTGGGTTCTAACCTGTTGCCTAT [TGTATTCCTAG_LTGcore_CT_RTGcore_AT] (site TGTATTCCTAG) (LTG core: CT, RTG core: AT) — within 0.2 log units, 0.192
- GCGGGACAGTGGGTTCTAACCTGTTGCCTCT [GCGGGACCTAG_LTGcore_AG_RTGcore_AG] (site GCGGGACCTAG) (LTG core: AG, RTG core: AG) — within 0.2 log units, 0
- TAGAGGGTCTGGGTTCTAACCTGTTGCGGAG [TAGAGGGCTCC_LTGcore_TC_RTGcore_CT] (site TAGAGGGCTCC) (LTG core: TC, RTG core: CT) — higher, 0.506
- TAAGAATGGTGGGTTCTAACCTGTTGCCTAG [TAAGAATCTAG_LTGcore_GG_RTGcore_CT] (site TAAGAATCTAG) (LTG core: GG, RTG core: CT) — within 0.2 log units, 0.0162
- ACGGGACGGTGGGTTCTAACCTGTTGCAGCC [ACGGGACCTCT_LTGcore_GG_RTGcore_GG] (site ACGGGACCTCT) (LTG core: GG, RTG core: GG) — within 0.2 log units, 0.12
- AGTCTTAGATGGGTTCTAACCTGTTGCCATC [AGTCTTACTTG_LTGcore_GA_RTGcore_GA] (site AGTCTTACTTG) (LTG core: GA, RTG core: GA) — within 0.2 log units, 0.0257
- CGCGCCCCTTGGGTTCTAACCTGTTGCGGGA [CGCGCCCCTCC_LTGcore_CT_RTGcore_TC] (site CGCGCCCCTCC) (LTG core: CT, RTG core: TC) — within 0.2 log units, 0.0431
- GCGCGACAGTGGGTTCTAACCTGTTGCTTAG [GCGCGACCTAA_LTGcore_AG_RTGcore_CT] (site GCGCGACCTAA) (LTG core: AG, RTG core: CT) — higher, 0.642
- ACGGGACCTTGGGTTCTAACCTGTTGCAGCC [ACGGGACCTCT_LTGcore_CT_RTGcore_GG] (site ACGGGACCTCT) (LTG core: CT, RTG core: GG) — higher, 1.11
- TGATACCGGTGGGTTCTAACCTGTTGCGTCC [TGATACCCTAC_LTGcore_GG_RTGcore_GG] (site TGATACCCTAC) (LTG core: GG, RTG core: GG) — within 0.2 log units, 0.115
- AGGCCTCAATGGGTTCTAACCTGTTGCCTTT [AGGCCTCCTAG_LTGcore_AA_RTGcore_AA] (site AGGCCTCCTAG) (LTG core: AA, RTG core: AA) — within 0.2 log units, 0.0414
- GGGCGGACGTGGGTTCTAACCTGTTGCGGCG [GGGCGGACTCC_LTGcore_CG_RTGcore_CG] (site GGGCGGACTCC) (LTG core: CG, RTG core: CG) — higher, 0.759
- ATGTCCCAATGGGTTCTAACCTGTTGCTCTT [ATGTCCCCTGA_LTGcore_AA_RTGcore_AA] (site ATGTCCCCTGA) (LTG core: AA, RTG core: AA) — within 0.2 log units, 0.133
- GAGCCCAAGTGGGTTCTAACCTGTTGCCTAG [GAGCCCACTAG_LTGcore_AG_RTGcore_CT] (site GAGCCCACTAG) (LTG core: AG, RTG core: CT) — within 0.2 log units, 0.0502
- TCTACCCTATGGGTTCTAACCTGTTGCTGTA [TCTACCCCTCA_LTGcore_TA_RTGcore_TA] (site TCTACCCCTCA) (LTG core: TA, RTG core: TA) — within 0.2 log units, 0.0877
- GGGCGGAAATGGGTTCTAACCTGTTGCGGTT [GGGCGGACTCC_LTGcore_AA_RTGcore_AA] (site GGGCGGACTCC) (LTG core: AA, RTG core: AA) — higher, 0.428
- CGCGCCCAATGGGTTCTAACCTGTTGCGGAG [CGCGCCCCTCC_LTGcore_AA_RTGcore_CT] (site CGCGCCCCTCC) (LTG core: AA, RTG core: CT) — within 0.2 log units, 0.173
- GGACACCCTTGGGTTCTAACCTGTTGCCTAG [GGACACCCTAG_LTGcore_CT_RTGcore_CT] (site GGACACCCTAG) (LTG core: CT, RTG core: CT) — higher, 2.43
- GCGCGACCTTGGGTTCTAACCTGTTGCTTAC [GCGCGACCTAA_LTGcore_CT_RTGcore_GT] (site GCGCGACCTAA) (LTG core: CT, RTG core: GT) — within 0.2 log units, 0.23
- ACGGGACCTTGGGTTCTAACCTGTTGCAGCG [ACGGGACCTCT_LTGcore_CT_RTGcore_CG] (site ACGGGACCTCT) (LTG core: CT, RTG core: CG) — within 0.2 log units, 0.0844
- TCTACCCTTTGGGTTCTAACCTGTTGCTGAG [TCTACCCCTCA_LTGcore_TT_RTGcore_CT] (site TCTACCCCTCA) (LTG core: TT, RTG core: CT) — within 0.2 log units, 0.0279
- AAACATGTCTGGGTTCTAACCTGTTGCCTAG [AAACATGCTAG_LTGcore_TC_RTGcore_CT] (site AAACATGCTAG) (LTG core: TC, RTG core: CT) — within 0.2 log units, 0.0742
- CGAGCCCTATGGGTTCTAACCTGTTGCTGTA [CGAGCCCCTCA_LTGcore_TA_RTGcore_TA] (site CGAGCCCCTCA) (LTG core: TA, RTG core: TA) — within 0.2 log units, 0.083
- ACGGGACCTTGGGTTCTAACCTGTTGCAGTA [ACGGGACCTCT_LTGcore_CT_RTGcore_TA] (site ACGGGACCTCT) (LTG core: CT, RTG core: TA) — higher, 0.818
- TAGAGGGCTTGGGTTCTAACCTGTTGCGGGG [TAGAGGGCTCC_LTGcore_CT_RTGcore_CC] (site TAGAGGGCTCC) (LTG core: CT, RTG core: CC) — within 0.2 log units, 0.241
- GGTGCCCGCTGGGTTCTAACCTGTTGCCGAG [GGTGCCCCTCG_LTGcore_GC_RTGcore_CT] (site GGTGCCCCTCG) (LTG core: GC, RTG core: CT) — within 0.2 log units, 0.0494
- GAGTCCACTTGGGTTCTAACCTGTTGCGTCA [GAGTCCACTAC_LTGcore_CT_RTGcore_TG] (site GAGTCCACTAC) (LTG core: CT, RTG core: TG) — within 0.2 log units, 0.0372
- AGGAGGTCTTGGGTTCTAACCTGTTGCCTCG [AGGAGGTCTAG_LTGcore_CT_RTGcore_CG] (site AGGAGGTCTAG) (LTG core: CT, RTG core: CG) — higher, 0.386
- CGAGCCCCTTGGGTTCTAACCTGTTGCTGAA [CGAGCCCCTCA_LTGcore_CT_RTGcore_TT] (site CGAGCCCCTCA) (LTG core: CT, RTG core: TT) — higher, 0.691
- TGTATTCGGTGGGTTCTAACCTGTTGCCTCC [TGTATTCCTAG_LTGcore_GG_RTGcore_GG] (site TGTATTCCTAG) (LTG core: GG, RTG core: GG) — within 0.2 log units, 0.0849
- AAACAGTCCTGGGTTCTAACCTGTTGCCTAG [AAACAGTCTAG_LTGcore_CC_RTGcore_CT] (site AAACAGTCTAG) (LTG core: CC, RTG core: CT) — higher, 0.93
